Test results reported in ChEMBL document CHEMBL4808193, “[11]-Chaetoglobosins from Pseudeurotium bakeri Induce G2/M Cell Cycle Arrest and Apoptosis in Human Cancer Cells” (J Nat Prod, 2021).

Columns and labels:
A-427 [1] = assay: Cell cycle arrest in human A-427 cells assessed as accumulation at G2/M phase at 2 uM measured after 24 hrs by PI staining based flow cytometry (reference value: 17.34%); type: functional
A-427 [2] = assay: Induction of apoptosis in human A-427 cells assessed as late apoptotic cells at 4 uM measured after 24 hrs by Annexin V-FITC/propidium iodide staining based flow cytometric analysis (reference value: 1.70%); type: functional
A-427 [3] = assay: Induction of apoptosis in human A-427 cells assessed as late apoptotic cells at 6 uM measured after 24 hrs by Annexin V-FITC/propidium iodide staining based flow cytometric analysis (reference value: 1.70%); type: functional
HCT-116 = assay: Cytotoxicity against human HCT-116 cells assessed as reduction in cell viability by MTT assay; type: functional, cell-based
A-427 [4] = assay: Induction of apoptosis in human A-427 cells assessed as early apoptotic cells at 4 uM measured after 24 hrs by Annexin V-FITC/propidium iodide staining based flow cytometric analysis (reference value: 4.50%); type: functional
MCF7 [5] = assay: Cytotoxicity against human MCF7 cells assessed as reduction in cell viability by MTT assay; type: functional, cell-based
A-427 [6] = assay: Cytotoxicity against human A-427 cells assessed as reduction in cell viability by MTT assay; type: functional, cell-based
MCF7 [7] = assay: Cell cycle arrest in human MCF7 cells assessed as accumulation at G0/G1 phase at 5 uM measured after 24 hrs by PI staining based flow cytometry (reference value: 62.38%); type: functional
MCF7 [8] = assay: Cell cycle arrest in human MCF7 cells assessed as accumulation at G0/G1 phase at 10 uM measured after 24 hrs by PI staining based flow cytometry (reference value: 62.38%); type: functional
MCF7 [9] = assay: Induction of apoptosis in human MCF7 cells assessed as early apoptotic cells at 5 uM measured after 24 hrs by Annexin V-FITC/propidium iodide staining based flow cytometric analysis (reference value: 2.97%); type: functional
A-427 [10] = assay: Cell cycle arrest in human A-427 cells assessed as accumulation at G0/G1 phase at 2 uM measured after 24 hrs by PI staining based flow cytometry (reference value: 45.36%); type: functional
MCF7 [11] = assay: Cell cycle arrest in human MCF7 cells assessed as accumulation at S phase at 5 uM measured after 24 hrs by PI staining based flow cytometry (reference value: 22.83%); type: functional
HeLa = assay: Cytotoxicity against human HeLa cells assessed as reduction in cell viability by MTT assay; type: functional, cell-based
A-427 [12] = assay: Cell cycle arrest in human A-427 cells assessed as accumulation at S phase at 4 uM measured after 24 hrs by PI staining based flow cytometry (reference value: 37.30%); type: functional
A-427 [13] = assay: Induction of apoptosis in human A-427 cells assessed as early apoptotic cells at 2 uM measured after 24 hrs by Annexin V-FITC/propidium iodide staining based flow cytometric analysis (reference value: 4.50%); type: functional
HT-29 = assay: Cytotoxicity against human HT-29 cells assessed as reduction in cell viability by MTT assay; type: functional, cell-based
MCF7 [14] = assay: Induction of apoptosis in human MCF7 cells assessed as late apoptotic cells at 15 uM measured after 24 hrs by Annexin V-FITC/propidium iodide staining based flow cytometric analysis (reference value: 0.76%); type: functional
MCF7 [15] = assay: Cell cycle arrest in human MCF7 cells assessed as accumulation at S phase at 10 uM measured after 24 hrs by PI staining based flow cytometry (reference value: 22.83%; type: functional
A-427 [16] = assay: Cell cycle arrest in human A-427 cells assessed as accumulation at S phase at 2 uM measured after 24 hrs by PI staining based flow cytometry (reference value: 37.30%); type: functional
A-427 [17] = assay: Cell cycle arrest in human A-427 cells assessed as accumulation at G0/G1 phase at 6 uM measured after 24 hrs by PI staining based flow cytometry (reference value: 45.36%); type: functional
MCF7 [18] = assay: Induction of apoptosis in human MCF7 cells assessed as late apoptotic cells at 5 uM measured after 24 hrs by Annexin V-FITC/propidium iodide staining based flow cytometric analysis (reference value: 0.76%); type: functional
A549 = assay: Cytotoxicity against human A549 cells assessed as reduction in cell viability by MTT assay; type: functional, cell-based
A-427 [19] = assay: Cell cycle arrest in human A-427 cells assessed as accumulation at G2/M phase at 6 uM measured after 24 hrs by PI staining based flow cytometry (reference value: 17.34%); type: functional
L02 = assay: Cytotoxicity against human L02 cells assessed as reduction in cell viability by MTT assay; type: cell-based
MCF7 [20] = assay: Cell cycle arrest in human MCF7 cells assessed as accumulation at G2/M phase at 5 uM measured after 24 hrs by PI staining based flow cytometry (reference value: 14.79%); type: functional
MCF7 [21] = assay: Induction of apoptosis in human MCF7 cells assessed as late apoptotic cells at 10 uM measured after 24 hrs by Annexin V-FITC/propidium iodide staining based flow cytometric analysis (reference value: 0.76%); type: functional
MCF7 [22] = assay: Cell cycle arrest in human MCF7 cells assessed as accumulation at G0/G1 phase at 15 uM measured after 24 hrs by PI staining based flow cytometry (reference value: 62.38%); type: functional
MCF7 [23] = assay: Cell cycle arrest in human MCF7 cells assessed as accumulation at G2/M phase at 10 uM measured after 24 hrs by PI staining based flow cytometry (reference value: 14.79%); type: functional
A-427 [24] = assay: Cell cycle arrest in human A-427 cells assessed as accumulation at S phase at 6 uM measured after 24 hrs by PI staining based flow cytometry (reference value: 37.30%); type: functional
A-427 [25] = assay: Cell cycle arrest in human A-427 cells assessed as accumulation at G0/G1 phase at 4 uM measured after 24 hrs by PI staining based flow cytometry (reference value: 45.36%); type: functional
MCF7 [26] = assay: Cell cycle arrest in human MCF7 cells assessed as accumulation at G2/M phase at 15 uM measured after 24 hrs by PI staining based flow cytometry (reference value: 14.79%); type: functional
A-427 [27] = assay: Cell cycle arrest in human A-427 cells assessed as accumulation at G2/M phase at 4 uM measured after 24 hrs by PI staining based flow cytometry (reference value: 17.34%); type: functional
MCF7 [28] = assay: Induction of apoptosis in human MCF7 cells assessed as early apoptotic cells at 15 uM measured after 24 hrs by Annexin V-FITC/propidium iodide staining based flow cytometric analysis (reference value: 2.97%); type: functional
MCF7 [29] = assay: Cell cycle arrest in human MCF7 cells assessed as accumulation at S phase at 15 uM measured after 24 hrs by PI staining based flow cytometry (reference value: 22.83%); type: functional
HepG2 = assay: Cytotoxicity against human HepG2 cells assessed as reduction in cell viability by MTT assay; type: functional, cell-based
A-427 [30] = assay: Induction of apoptosis in human A-427 cells assessed as late apoptotic cells at 2 uM measured after 24 hrs by Annexin V-FITC/propidium iodide staining based flow cytometric analysis (reference value: 1.70%); type: functional
MCF7 [31] = assay: Induction of apoptosis in human MCF7 cells assessed as early apoptotic cells at 10 uM measured after 24 hrs by Annexin V-FITC/propidium iodide staining based flow cytometric analysis (reference value: 2.97%); type: functional
A-427 [32] = assay: Induction of apoptosis in human A-427 cells assessed as early apoptotic cells at 6 uM measured after 24 hrs by Annexin V-FITC/propidium iodide staining based flow cytometric analysis (reference value: 4.50%); type: functional

Q: For `CC1=C[C@@H]2/C=C/C[C@H](C)CC(=O)/C=C/C(=O)[C@]23C(=O)N[C@@H](Cc2c[nH]c4ccccc24)[C@@H]3[C@@H]1C`, which Activity (A-427 [1]) is on record?
A: The Activity was 36.13%.

Q: And the Activity (A-427 [2])?
A: Its Activity is 25.77%.

Q: What about the Activity (A-427 [3]) of the same molecule?
A: The Activity was 29.64%.

Q: And the IC50 (HCT-116)?
A: The IC50 was 12.2 µM.

Q: And the Activity (A-427 [4])?
A: The Activity was 19.74%.

Q: And the IC50 (MCF7 [5])?
A: Its IC50 is 6.5 µM.

Q: What about the IC50 (A-427 [6]) of the same molecule?
A: The IC50 was 4.8 µM.

Q: What about the Activity (MCF7 [7]) of the same molecule?
A: The Activity was 49.01%.

Q: And the Activity (MCF7 [8])?
A: Its Activity is 40.98%.

Q: What about the Activity (MCF7 [9]) of the same molecule?
A: Its Activity is 11.22%.

Q: What about the Activity (A-427 [10]) of the same molecule?
A: Its Activity is 43.99%.

Q: And the Activity (MCF7 [11])?
A: Its Activity is 8.32%.

Q: And the IC50 (HeLa)?
A: The IC50 was 8.6 µM.

Q: And the Activity (A-427 [12])?
A: Its Activity is 16.28%.

Q: What about the Activity (A-427 [13]) of the same molecule?
A: The Activity was 8.26%.

Q: And the IC50 (HT-29)?
A: The IC50 was 8.9 µM.

Q: And the Activity (MCF7 [14])?
A: The Activity was 13.22%.

Q: And the Activity (MCF7 [15])?
A: The Activity was 7.12%.

Q: What about the Activity (A-427 [16]) of the same molecule?
A: Its Activity is 19.88%.

Q: What about the Activity (A-427 [17]) of the same molecule?
A: The Activity was 33.91%.

Q: What about the Activity (MCF7 [18]) of the same molecule?
A: Its Activity is 5.79%.

Q: And the IC50 (A549)?
A: The IC50 was 9.5 µM.

Q: What about the Activity (A-427 [19]) of the same molecule?
A: The Activity was 49.58%.

Q: What about the IC50 (L02) of the same molecule?
A: Its IC50 is 36.3 µM.

Q: What about the Activity (MCF7 [20]) of the same molecule?
A: Its Activity is 42.67%.

Q: What about the Activity (MCF7 [21]) of the same molecule?
A: The Activity was 6.99%.

Q: What about the Activity (MCF7 [22]) of the same molecule?
A: Its Activity is 36.2%.

Q: And the Activity (MCF7 [23])?
A: Its Activity is 51.9%.

Q: And the Activity (A-427 [24])?
A: Its Activity is 16.51%.

Q: And the Activity (A-427 [25])?
A: Its Activity is 36.51%.

Q: And the Activity (MCF7 [26])?
A: The Activity was 55.69%.

Q: What about the Activity (A-427 [27]) of the same molecule?
A: The Activity was 47.21%.

Q: What about the Activity (MCF7 [28]) of the same molecule?
A: Its Activity is 32.79%.

Q: And the Activity (MCF7 [29])?
A: Its Activity is 8.11%.

Q: What about the IC50 (HepG2) of the same molecule?
A: The IC50 was 9.1 µM.

Q: What about the Activity (A-427 [30]) of the same molecule?
A: Its Activity is 14.29%.

Q: And the Activity (MCF7 [31])?
A: The Activity was 19.17%.

Q: And the Activity (A-427 [32])?
A: Its Activity is 24.44%.
